US9597407B2, “Targeted antimicrobial moieties” (C3 Jian, Inc., priority 2009, dated 2017)
“Also recorded” adds a separate entry of the source. Ends that are not written are not given here.

What was measured:
bacteria = test: Binding of targeting peptides to microorganisms (Table 3); settings: preferably 1x PBS
microorganisms = test: Morphology, biofilm and growth disruption by peptides (Table 5); format: cell-based; set-up: key: A: Peptide aggregates; B: Less hyphal formation; Clumps; Diffuse clumps and small polyps; F: Diffuse growth; H: Thin; I: Growth inhibition; Microcolony formation; Rippled; Small polyps; Thick; W: Halo formation on top, microlonies on bottom
Description: In certain embodiments peptides that induce alterations in phenotype or other biological activities can also be used as antimicrobial effector moieties.

[1] = microorganism bound by the targeting peptide, binding in aqueous buffers chosen by peptide solubility

PF-184 (LIADRHIRA; Peptide with targeting and/or antimicrobial activity)
Target(s) (bacteria; [1]): S. epidermidis and M. luteus and E. coli and P. aeruginosa and C. albicans and MRSA and C. jeikeium

1T-297 (RSLRLNNALTKLPKLWYNRIKEAFYAYNDYDK; Peptide with targeting and/or antimicrobial activity) [Peptide 1T-297]
Target(s) (bacteria; microorganism the targeting peptide binds, binding in aqueous buffers that varied with peptide solubility): A. naeslundii; also recorded: F. nucleatum; also recorded: T. denticola; also recorded: S. mitis; also recorded: S. mutans; also recorded: S. oralis

PF-299 (LATKLKYEKEHKKM; Peptide with targeting and/or antimicrobial activity)
Target(s) (bacteria; [1]): B. subtilis

PF-418 (FFLVHFYIRKRKGKVSIFLNYF; Peptide with targeting and/or antimicrobial activity)
Organism, effect (microorganisms; C. jejuni): C. jejuni (D)
Organism, effect (microorganisms; E. coli): E. coli (C)
Organism, effect (microorganisms; E. faecalis): E. faecalis (D)
Organism, effect (microorganisms; MRSA): MRSA (D)
Organism, effect (microorganisms; S. epidermidis): S. epidermidis (M)
Organism, effect (microorganisms; S. pneumoniae): S. pneumoniae (D)

PF-670 (chain 1 TVIVAPMHSGV; chain 2 TVIVAPMHSGV; Peptide with targeting and/or antimicrobial activity)
Organism, effect (morphology, biofilm and growth disruption) (microorganisms; B. subtilis): B. subtilis (H)
Organism, effect (morphology, biofilm and growth disruption) (microorganisms; S. pneumoniae): S. pneumoniae (H)

PF-468 (EDNKDKKDKKDK; Peptide with targeting and/or antimicrobial activity)
Organism, effect (morphology, biofilm and growth disruption) (microorganisms; S. pneumoniae): S. pneumoniae (H)

PF-574 (LVKSGKLESPYEHSEHLTLSQEKGLE; Peptide with targeting and/or antimicrobial activity)
Organism, effect (morphology, biofilm and growth disruption) (microorganisms; B. subtilis): B. subtilis (D)

PF-C089 (MPKRHYYKLEAKALQFGLPFAYSPIQLLK; Peptide with targeting and/or antimicrobial activity)
Organism, effect (morphology, biofilm and growth disruption) (microorganisms; P. gingivalis): P. gingivalis (R)

PF-190 (HFILRKPLLFMIHSLKTGPLDRF; Peptide with targeting and/or antimicrobial activity)
Organism, effect (microorganisms; C. jeikeium): C. jeikeium (R)
Organism, effect (microorganisms; S. epidermidis): S. epidermidis (C)

TKKIELKRFVDAFVKKSYENYILERELKKLIKAINEELPTK [PF-600]
Organism, effect (morphology, biofilm and growth disruption) (microorganisms; E. coli): E. coli (H)
Organism, effect (morphology, biofilm and growth disruption) (microorganisms; M. luteus): M. luteus (C)
Organism, effect (morphology, biofilm and growth disruption) (microorganisms; MRSA): MRSA (M)
Organism, effect (morphology, biofilm and growth disruption) (microorganisms; S. epidermidis): S. epidermidis (C)
Organism, effect (morphology, biofilm and growth disruption) (microorganisms; S. mutans): S. mutans (S)
Organism, effect (morphology, biofilm and growth disruption) (microorganisms; S. pneumoniae): S. pneumoniae (R)

LGLTAGVAYAAQPTNQPTNQPTNQPTNQPTNQPTNQPRW-NH2 [PF-520]
Organism, effect (morphology, biofilm and growth disruption) (microorganisms; S. pneumoniae): S. pneumoniae (M)

PF-019 (NDTNK; Peptide with targeting and/or antimicrobial activity)
Organism, effect (microorganisms; MRSA): MRSA (M)

PF-612 (GTTLKYGLERQLKIDIHPEITIINLNGGADEFAKL; Peptide with targeting and/or antimicrobial activity)
Organism, effect (morphology, biofilm and growth disruption) (microorganisms; E. coli): E. coli (C)
Organism, effect (morphology, biofilm and growth disruption) (microorganisms; M. luteus): M. luteus (A)
Organism, effect (morphology, biofilm and growth disruption) (microorganisms; MRSA): MRSA (C)
Organism, effect (morphology, biofilm and growth disruption) (microorganisms; P. mirabilis): P. mirabilis (C)
Organism, effect (morphology, biofilm and growth disruption) (microorganisms; S. epidermidis): S. epidermidis (C)
Organism, effect (morphology, biofilm and growth disruption) (microorganisms; S. mutans): S. mutans (F)
Organism, effect (morphology, biofilm and growth disruption) (microorganisms; S. pneumoniae): S. pneumoniae (C)

PF-203 (SWKCHHLAI; Peptide with targeting and/or antimicrobial activity)
Organism, effect (microorganisms; C. jeikeium): C. jeikeium (R)
Organism, effect (microorganisms; S. epidermidis): S. epidermidis (A)

SKFKVLRKIIIKEYKGELMLSIQKQR [PF-530]
Organism, effect (morphology, biofilm and growth disruption) (microorganisms; E. coli): E. coli (R)
Organism, effect (morphology, biofilm and growth disruption) (microorganisms; E. faecalis): E. faecalis (C)
Organism, effect (morphology, biofilm and growth disruption) (microorganisms; MRSA): MRSA (C)
Organism, effect (morphology, biofilm and growth disruption) (microorganisms; S. epidermidis): S. epidermidis (H)
Organism, effect (morphology, biofilm and growth disruption) (microorganisms; S. pneumoniae): S. pneumoniae (R)

PF-004 (chain 1 ARLSKAIIIAVIVVYHLDVRGLF; chain 2 ARLSKAIIIAVIVVYHLDVRGLF; Peptide with targeting and/or antimicrobial activity)
Organism, effect (microorganisms; C. jeikeium): C. jeikeium (A)
Organism, effect (microorganisms; M. luteus): M. luteus (A)
Organism, effect (microorganisms; MRSA): MRSA (R)
Organism, effect (microorganisms; S. epidermidis): S. epidermidis (A)

PF-076 (LYQYELLSKEEYLKCTLIINQRRNEQK; Peptide with targeting and/or antimicrobial activity)
Organism, effect (microorganisms; C. jeikeium): C. jeikeium (A)
Organism, effect (microorganisms; M. luteus): M. luteus (A)
Organism, effect (microorganisms; MRSA): MRSA (R)
Organism, effect (microorganisms; S. epidermidis): S. epidermidis (S)

PF-595 (LQNKIYELLYIKERSKLCS; Peptide with targeting and/or antimicrobial activity)
Organism, effect (morphology, biofilm and growth disruption) (microorganisms; C. jejuni): C. jejuni (D)
Organism, effect (morphology, biofilm and growth disruption) (microorganisms; E. coli): E. coli (C)
Organism, effect (morphology, biofilm and growth disruption) (microorganisms; E. faecalis): E. faecalis (D)
Organism, effect (morphology, biofilm and growth disruption) (microorganisms; MRSA): MRSA (D)
Organism, effect (morphology, biofilm and growth disruption) (microorganisms; S. epidermidis): S. epidermidis (C)
Organism, effect (morphology, biofilm and growth disruption) (microorganisms; S. pneumoniae): S. pneumoniae (R)

KFQGEFTNIGQSYIVSASHMSTSLNTGK [PF-583]
Organism, effect (morphology, biofilm and growth disruption) (microorganisms; MRSA): MRSA (I)
Organism, effect (morphology, biofilm and growth disruption) (microorganisms; S. epidermidis): S. epidermidis (I)
Organism, effect (morphology, biofilm and growth disruption) (microorganisms; S. mutans): S. mutans (F)
Organism, effect (morphology, biofilm and growth disruption) (microorganisms; S. pneumoniae): S. pneumoniae (D)

KTPNDKIHKTIIIKHIIL [PF-533]
Organism, effect (morphology, biofilm and growth disruption) (microorganisms; E. coli): E. coli (R)
Organism, effect (morphology, biofilm and growth disruption) (microorganisms; E. faecalis): E. faecalis (C)
Organism, effect (morphology, biofilm and growth disruption) (microorganisms; MRSA): MRSA (H)
Organism, effect (morphology, biofilm and growth disruption) (microorganisms; S. epidermidis): S. epidermidis (H)
Organism, effect (morphology, biofilm and growth disruption) (microorganisms; S. pneumoniae): S. pneumoniae (C)

PF-199 (FPAFSFGAIAGSVSVAR; Peptide with targeting and/or antimicrobial activity)
Organism, effect (microorganisms; C. jeikeium): C. jeikeium (R)
Organism, effect (microorganisms; M. luteus): M. luteus (A)
Organism, effect (microorganisms; S. epidermidis): S. epidermidis (C)

PF-561 (ESLEADVQAELDTEAAKYPALPASF; Peptide with targeting and/or antimicrobial activity)
Organism, effect (morphology, biofilm and growth disruption) (microorganisms; B. subtilis): B. subtilis (D)
Organism, effect (morphology, biofilm and growth disruption) (microorganisms; MRSA): MRSA (M)

PF-532 (KFIYKYKLSFIIYKILIQTLTMELNK; Peptide with targeting and/or antimicrobial activity)
Organism, effect (morphology, biofilm and growth disruption) (microorganisms; E. coli): E. coli (C)
Organism, effect (morphology, biofilm and growth disruption) (microorganisms; E. faecalis): E. faecalis (C)
Organism, effect (morphology, biofilm and growth disruption) (microorganisms; MRSA): MRSA (C)
Organism, effect (morphology, biofilm and growth disruption) (microorganisms; S. pneumoniae): S. pneumoniae (C)

PF-318 (MGRHLWNPSYFVATVSENTEEQIRKYINNQKKQVK; Peptide with targeting and/or antimicrobial activity)
Organism, effect (microorganisms; B. subtilis): B. subtilis (C)
Organism, effect (microorganisms; S. epidermidis): S. epidermidis (C)

PF-432 (FNGDSEFFLCIAF; Peptide with targeting and/or antimicrobial activity)
Organism, effect (morphology, biofilm and growth disruption) (microorganisms; C. jejuni): C. jejuni (D)
Organism, effect (morphology, biofilm and growth disruption) (microorganisms; E. coli): E. coli (R)
Organism, effect (morphology, biofilm and growth disruption) (microorganisms; E. faecalis): E. faecalis (D)
Organism, effect (morphology, biofilm and growth disruption) (microorganisms; MRSA): MRSA (M)
Organism, effect (morphology, biofilm and growth disruption) (microorganisms; P. aeruginosa): P. aeruginosa (A)
Organism, effect (morphology, biofilm and growth disruption) (microorganisms; S. epidermidis): S. epidermidis (M)
Organism, effect (morphology, biofilm and growth disruption) (microorganisms; S. pneumoniae): S. pneumoniae (D)

MGIIAGIIKVIKSLIEQFTGK [PF-007]
Organism, effect (microorganisms; E. coli): E. coli (A)
Organism, effect (microorganisms; E. faecalis): E. faecalis (A)
Organism, effect (microorganisms; M. luteus): M. luteus (A)
Organism, effect (microorganisms; MRSA): MRSA (R)
Organism, effect (microorganisms; S. epidermidis): S. epidermidis (A)

RRGCTERLRRMARRNAWDLYAEHFY [PF-148]
Organism, effect (microorganisms; B. subtilis): B. subtilis (I)
Organism, effect (microorganisms; C. albicans): C. albicans (B)
Organism, effect (microorganisms; C. jeikeium): C. jeikeium (H)
Organism, effect (microorganisms; C. jejuni): C. jejuni (H)
Organism, effect (microorganisms; M. luteus): M. luteus (A)
Organism, effect (microorganisms; MRSA): MRSA (C)
Organism, effect (microorganisms; S. epidermidis): S. epidermidis (D)
Organism, effect (microorganisms; S. pneumoniae): S. pneumoniae (R)

PF-419 (VVTGKVGSLPQIK; Peptide with targeting and/or antimicrobial activity)
Organism, effect (microorganisms; S. pneumoniae): S. pneumoniae (H)

PF-605 (HYRWNTQWWKY; Peptide with targeting and/or antimicrobial activity)
Organism, effect (morphology, biofilm and growth disruption) (microorganisms; C. albicans): C. albicans (B)
Organism, effect (morphology, biofilm and growth disruption) (microorganisms; C. jejuni): C. jejuni (R)
Organism, effect (morphology, biofilm and growth disruption) (microorganisms; E. coli): E. coli (C)
Organism, effect (morphology, biofilm and growth disruption) (microorganisms; E. faecalis): E. faecalis (R)
Organism, effect (morphology, biofilm and growth disruption) (microorganisms; MRSA): MRSA (C)
Organism, effect (morphology, biofilm and growth disruption) (microorganisms; P. aeruginosa): P. aeruginosa (A)
Organism, effect (morphology, biofilm and growth disruption) (microorganisms; S. epidermidis): S. epidermidis (R)
Organism, effect (morphology, biofilm and growth disruption) (microorganisms; S. pneumoniae): S. pneumoniae (D)

PF-125 (YVVGALVILAVAGLIYSMLRKA; Peptide with targeting and/or antimicrobial activity)
Organism, effect (microorganisms; M. luteus): M. luteus (C)
Organism, effect (microorganisms; S. epidermidis): S. epidermidis (D)

GSVIKKRRKRMAKKKHRKLLKKTRIQRRRAGK [PF-527]
Organism, effect (morphology, biofilm and growth disruption) (microorganisms; B. subtilis): B. subtilis (I)
Organism, effect (morphology, biofilm and growth disruption) (microorganisms; C. albicans): C. albicans (B)
Organism, effect (morphology, biofilm and growth disruption) (microorganisms; C. jeikeium): C. jeikeium (I)
Organism, effect (morphology, biofilm and growth disruption) (microorganisms; C. jejuni): C. jejuni (M)
Organism, effect (morphology, biofilm and growth disruption) (microorganisms; M. luteus): M. luteus (S)
Organism, effect (morphology, biofilm and growth disruption) (microorganisms; MRSA): MRSA (I)
Organism, effect (morphology, biofilm and growth disruption) (microorganisms; P. aeruginosa): P. aeruginosa (I)
Organism, effect (morphology, biofilm and growth disruption) (microorganisms; S. epidermidis): S. epidermidis (M)
Organism, effect (morphology, biofilm and growth disruption) (microorganisms; S. pneumoniae): S. pneumoniae (H)

PF-342 (AFSGVYKTLIVYTRRK; Peptide with targeting and/or antimicrobial activity)
Organism, effect (microorganisms; B. subtilis): B. subtilis (C)
Organism, effect (microorganisms; S. epidermidis): S. epidermidis (C)
